Reference: patent US20230115350A1 (Cedilla Therapeutics, Inc., priority 2021, published 2023)
pIC50: −log10 of the molar value.

Assays:
NCI-H226 = test: 72H TEAD Proliferation Assay (Cell Titer-Glo 2.0); assay type: cell-based; details: Homo sapiens, NCI-H226, 72 h, CTG 2.0, cell line not given
In short: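 NF2-deficient mesothelioma cells were seeded at 500 cells per well on 10-point half-log compound dilutions in duplicate and grown 72 hours at 37° C, 5% CO2. Viable cells were read by CellTiter-Glo 2.0 luminescence, background- and time-zero-subtracted; GI50 came from nonlinear regression of dose-response curves.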

[1] = biological target: TEAD1 protein (YAP Binding Domain) (Homo sapiens, UniProt P28347); test: TEAD1 lipid pocket compound displacement assay (TR-FRET, Cy5-probe); details: 60 minutes incubation at room temperature; TR-FRET 665 nm/620 nm; read-out: CDA IC50
TEAD1 protein (YAP Binding Domain), sequence (P28347 209-426 limits assumed): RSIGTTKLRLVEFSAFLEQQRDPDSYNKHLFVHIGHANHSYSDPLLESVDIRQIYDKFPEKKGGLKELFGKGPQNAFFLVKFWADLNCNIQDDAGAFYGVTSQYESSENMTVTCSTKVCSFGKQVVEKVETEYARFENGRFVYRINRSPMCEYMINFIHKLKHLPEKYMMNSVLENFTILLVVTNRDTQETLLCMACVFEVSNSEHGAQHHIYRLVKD
In short: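 His-tagged TEAD1 YAP-binding domain pre-mixed with a Cy5-labelled lipid-pocket probe and Tb-anti-His antibody; compounds incubated with the complex 60 min at room temperature. TR-FRET read at 665/620 nm; IC50 from 4-parameter non-linear fit of probe displacement.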

His-Tev-Avi-TEAD1 = His-Tev-Avi-TEAD1 (Homo sapiens, UniProt P28347); test: TEAD mass modification assay (iMS); assay type: binding; details: 50 μM compound, 1 hour, room temperature
His-Tev-Avi-TEAD1, sequence (P28347 209-426 limits assumed): as above
Method: Compound stock (10 mM) was diluted to 2.5 mM with DMSO and His-Tev-Avi-TEAD1 was diluted to 5 μM with Reaction Buffer (50 mM Tris pH 8.0, 150 mM NaCl, and 1 mM TCEP). Compound (1 μL) is incubated with 49 μL protein at room temperature for 1 hour (final compound concentration was 50 μM). The sample (20 μL) was shipped on dry ice to MSBioworks for iMS analysis.
This assay confirms whether or not TEAD is covalently bound to a test compound (i.e., whether the protein's mass is modified). […] Compounds 80 (see FIG. 2), 89 (see FIG. 3), 73 (see FIG. 4), 53 (see FIG. 5), and 59 (see FIG. 6) were also tested in this fashion.

Structure (SMILES): C=CC(=O)Nc1ccc(OCc2ccc(C(F)(F)F)nc2)c(F)c1 [Compound 73, N-(3-fluoro-4-((6-(trifluoromethyl)pyridin-3-yl)methoxy)phenyl)acrylamide]
- GI50 (NCI-H226): 250 to 1000 nM
- pIC50 [1]: 5.70 to 6.30
- mass modification of TEAD1 (covalent binding) (His-Tev-Avi-TEAD1): mass modification of TEAD1

Structure (SMILES): C=CC(=O)Nc1ccc(OCc2ccccc2Cl)c(F)c1 [Compound 53, N-(4-((2-chlorobenzyl)oxy)-3-fluorophenyl)acrylamide]
- GI50 (NCI-H226): 1000 to 3000 nM
- pIC50 [1]: 5.70 to 6.30
- mass modification of TEAD1 (covalent binding) (His-Tev-Avi-TEAD1): mass modification of TEAD1

Structure (SMILES): C=CC(=O)Nc1ccc(OCC2CCC(C(F)(F)F)CC2)c(F)c1 (stereo not drawn) [Compound 59, N-(3-fluoro-4-((4-(trifluoromethyl)cyclohexyl)methoxy)phenyl)acrylamide]
- GI50 (NCI-H226): > 3000 nM
- pIC50 [1]: ≥ 6.60
- mass modification of TEAD1 (covalent binding) (His-Tev-Avi-TEAD1): mass modification of TEAD1

Structure (SMILES): C=CC(=O)Nc1ccc(OCc2cccc(Cl)c2Cl)c(F)c1 [Compound 80, N-(4-((2,3-dichlorobenzyl)oxy)-3-fluorophenyl)acrylamide]
- GI50 (NCI-H226): 250 to 1000 nM
- pIC50 [1]: ≥ 6.60
- mass modification of TEAD1 (covalent binding) (His-Tev-Avi-TEAD1): mass modification of TEAD1

Structure (SMILES): C=CC(=O)Nc1ccc(OCC2CCC(F)(F)CC2)c(F)c1 [Compound 58, N-(4-((4,4-difluorocyclohexyl)methoxy)-3-fluorophenyl)acrylamide]
- GI50 (NCI-H226): 250 to 1000 nM
- pIC50 [1]: ≥ 6.60
- mass modification of TEAD1 (covalent binding) (His-Tev-Avi-TEAD1): mass shift indicates modification of TEAD1
- mass of the protein treated with compound (His-Tev-Avi-TEAD1; untreated protein m/z 30,030.70): 30,344.29 m/z

Structure (SMILES): C=CC(=O)Nc1ccc(OCc2csc3ccccc23)c(F)c1 [Compound 60, N-(4-(benzo[b]thiophen-3-ylmethoxy)-3-fluorophenyl)acrylamide]
- GI50 (NCI-H226): > 3000 nM
- pIC50 [1]: 5.70 to 6.30

Structure (SMILES): C=CC(=O)Nc1ccc(OC(C)c2cccc(F)c2)c(F)c1 (stereo not drawn) [Compound 124, N-(3-fluoro-4-(1-(3-fluorophenyl)ethoxy)phenyl)acrylamide]
- GI50 (NCI-H226): > 3000 nM
- pIC50 [1]: 6.30 to 6.60

Structure (SMILES): C=CC(=O)Nc1ccc(OCC2CCC(F)(F)CC2)c2ccncc12 [Compound 19, N-(5-((4,4-difluorocyclohexyl)methoxy)isoquinolin-8-yl)acrylamide]
- GI50 (NCI-H226): > 3000 nM
- pIC50 [1]: < 5.70

Structure (SMILES): C=CC(=O)Nc1ccc(OCc2cc(C(F)(F)F)ccn2)c(F)c1 [Compound 117, N-(3-fluoro-4-((4-(trifluoromethyl)pyridin-2-yl)methoxy)phenyl)acrylamide]
- GI50 (NCI-H226): 250 to 1000 nM
- pIC50 [1]: 6.30 to 6.60

Structure (SMILES): C=CC(=O)Nc1ccc(OCc2cccc(CC)c2)c(F)c1 [Compound 26, N-(4-((3-ethylbenzyl)oxy)-3-fluorophenyl)acrylamide]
- GI50 (NCI-H226): 250 to 1000 nM
- pIC50 [1]: ≥ 6.60

Structure (SMILES): C=CC(=O)Nc1ccc(OCc2cccc(C(F)(F)F)c2)c(C#N)c1 [Compound 38, N-(3-cyano-4-((3-(trifluoromethyl)benzyl)oxy)phenyl)acrylamide]
- GI50 (NCI-H226): 1000 to 3000 nM
- pIC50 [1]: 5.70 to 6.30

Structure (SMILES): C=CC(=O)Nc1ccc(OCc2ccc(C#N)s2)c(F)c1 [Compound 63, N-(4-((5-cyanothiophen-2-yl)methoxy)-3-fluorophenyl)acrylamide]
- GI50 (NCI-H226): 1000 to 3000 nM
- pIC50 [1]: 5.70 to 6.30
